Assay results taken from patent US8343458B2, “Probes for in vivo targeting of active cysteine proteases” (The Board of Trustees of the Leland Stanford Junior …, priority 2008, dated 2013).
“And” between values parts separate entries of the source, which are not always exact repeats. Equal entries are not always repeated.

Columns and labels:
C2C12/Ras tumors = experiment: Biodistribution in nude mice bearing subcutaneous C2C12/Ras tumors; format: in vivo, mouse; settings: for Biodistribution: Blood / Biodistribution: Bone / Biodistribution: Brain / Biodistribution: Heart / Biodistribution: Intestines / Biodistribution: Kidney / Biodistribution: Liver / Biodistribution: Lung / Biodistribution: Muscle / Biodistribution: Pancreas / Biodistribution: Spleen / Biodistribution: Stomach / Biodistribution: Tumor / Tumor/Blood ratio / Tumor/Muscle ratio: C2C12/Ras tumor mice, i.v. 740 kBq
Protocol: All animal studies were carried out in compliance with Federal and local institutional rules for the conduct of animal experimentation. Female athymic nude mice (nu/nu) were obtained from Charles River Laboratories (Boston, Mass.) at 7-8 weeks old and kept under sterile conditions. The nude mice were inoculated subcutaneously in the right shoulder with 2×10^6 cultured C2C12/Ras cells or 5×10^6 MDA-MB-435 cells. When the tumors reach 0.5-0.8 cm in diameter, the tumor bearing mice were subjected to in vivo biodistribution studies. For biodistribution studies, the mice bearing C2C12/Ras or MDA-MB-435 tumor xenografts (n=3 for each group) were injected with 740 KBq (20 μCi) of ^64Cu labeled tracer through the tail vein and sacrificed at different time points post injection (p.i.). Tumor and normal tissues of interest were removed and weighed, and their radioactivity was measured in a gamma-counter. The radioactivity uptake in the tumor and normal tissues was expressed as a percentage of the injected radioactive dose per gram of tissue (% ID/g).
We next examined the overall biodistribution of ^64Cu-Z-FK(DOTA)-AOMK using athymic nude mice carrying subcutaneously grafted C2C12/Ras and MDA-MB-435 tumors. […] Importantly, we observed rapid accumulation of radioactivity in the C2C12/Ras tumors expressing high levels of cysteine cathepsins (0.35±0.13% ID/g at 0.5 h p.i.). This activity remained in the tumors resulting in an uptake of 0.27±0.05% ID/g at 24 h p.i. For the MDA-MB-435 tumors with lower cysteine cathepsin expression, tumor uptake was approximately 2 fold lower at each time point relative to the C2C12/Ras tumors (P<0.05). […] The highest radioactivity was found in the liver due to high endogenous expression of various cysteine cathepsins. Moderate renal accumulation was also observed at all times in both tumor models.
Data are expressed as the percentage administered activity (injected dose) per gram of tissue (% ID/g) after intravenous injection of 740 kBq (20 μCi) of ^64Cu-Z-FK(DOTA)-AOMK at 0.5, 2, and 24 h pi (n=3). Significant lower tumor uptake and tumor/blood, tumor/muscle ratio in MDA-MB-435 breast cancer (P<0.05) were observed.

[1] = Octanol/water partition coefficient; format: physicochemical; settings: octanol / PBS pH 7.4, repeated 3 times
Protocol: Octanol/water partition coefficient. To determine the lipophilicity of ^64Cu-Z-FK(DOTA)-AOMK, approximately 370 kBq of ^64Cu-labeled complex in 500 μl of PBS (pH 7.4) was added to 500 μl of octanol in an eppendorf microcentrifuge tube. The resulting biphasic system was mixed vigorously for 10 min and left at room temperature for another 60 min. The two phases were then separated by centrifugation at 2000 g for 5 min (model 5415R Eppendorf microcentrifuge; Brinkman, Westbury, N.Y.). From each layer, an aliquot of 100 μl was removed and counted in a γ-counter (Packard Instruments). The partition coefficient (log P) was then calculated as a ratio of counts in the octanol fraction to the counts in the water fraction. The experiment was repeated 3 times. The lipophilicity of the probe affects its in vivo pharmacokinetics, and should be modest (˜0), with hydrophobic and hydrophilic groups present. For further details, see Lin et al., “Role of Pharmacokinetics and Metabolism in Drug Discovery and Development,” Pharmacological Reviews, Vol. 49, Issue 4, 403-449, December 1997.

C2C12/Ras tumor = experiment: MicroPET imaging of C2C12/Ras tumor-bearing mice; format: in vivo, mouse; settings: 2 and 24 hours post injection, 5.55 MBq i.v.
From the text: (§1) FIG. 3 is a composite photograph showing mouse uptake of labeled probe, i.e., a series of photographs of imaged mice. For purposes of reproduction, the image is converted to black and white and reversed. Lightest to darkest is a range between 0% ID (injected dose)/g and 1% ID/g. […] Arrows indicate location of tumors.
(§2) We performed micro PET imaging of mice bearing the MDA-MB-435 and C2C12/Ras tumors. The static microPET images (5 or 10-min scan, three tumor bearing mice were used for each study) of ^64Cu-Z-FK(DOTA)-AOMK are illustrated in coronal images of the subcutaneously implanted tumor-bearing mice (FIG. 3). […] The tumor, indicated by the arrow, is not clearly illuminated.
(§3) PET imaging of tumor-bearing mice is performed on a microPET R4 rodent model scanner (Concorde Microsystems Inc, Knoxyille, Tenn.). The mice bearing C2C12/Ras and MDA-MB-435 tumors were injected with 5.55 MBq (150 μCi) of ^64Cu AOMK probe via the tail vein. At different times p.i., the mice were anesthetized with 2% isoflurane, and placed in the prone position and near the center of the field of view of microPET. The 5 or 10-min static scans were obtained and the images were reconstructed by a two-dimensional ordered subsets expectation maximum (OSEM) algorithm.

MDA-MB-435 tumor = experiment: MicroPET imaging of MDA-MB-435 tumor-bearing mice; format: in vivo, mouse; settings: MDA-MB-435 tumor, 1, 4 and 28 hours post injection
From the text: as §1, §2, §3

Biodistribution: Blood (C2C12/Ras tumors; 0.5 h p.i.): 0.24 ± 0.07 % ID/g
Biodistribution: Bone (C2C12/Ras tumors; 0.5 h p.i.): 0.09 ± 0.02 % ID/g
Biodistribution: Brain (C2C12/Ras tumors; 0.5 h p.i.): 0.04 ± 0.03 % ID/g
Biodistribution: Heart (C2C12/Ras tumors; 0.5 h p.i.): 0.25 ± 0.02 % ID/g
Biodistribution: Intestines (C2C12/Ras tumors; 0.5 h p.i.): 1.84 ± 0.57 % ID/g
Biodistribution: Kidney (C2C12/Ras tumors; 0.5 h p.i.): 0.74 ± 0.29 % ID/g
Biodistribution: Liver (C2C12/Ras tumors; 0.5 h p.i.): 3.71 ± 1.04 % ID/g
Biodistribution: Lung (C2C12/Ras tumors; 0.5 h p.i.): 0.50 ± 0.17 % ID/g
Biodistribution: Muscle (C2C12/Ras tumors; 0.5 h p.i.): 0.06 ± 0.01 % ID/g
Biodistribution: Pancreas (C2C12/Ras tumors; 0.5 h p.i.): 0.25 ± 0.22 % ID/g
Biodistribution: Spleen (C2C12/Ras tumors; 0.5 h p.i.): 0.35 ± 0.24 % ID/g
Biodistribution: Stomach (C2C12/Ras tumors; 0.5 h p.i.): 0.63 ± 0.69 % ID/g
Biodistribution: Tumor (C2C12/Ras tumors; 0.5 h p.i.): 0.35±0.13 % ID/g
Tumor/Blood ratio (C2C12/Ras tumors; 0.5 h p.i.): 1.41 ± 0.32
Tumor/Muscle ratio (C2C12/Ras tumors; 0.5 h p.i.): 5.24 ± 1.35
Biodistribution: Blood (C2C12/Ras tumors; 2 h p.i.): 0.24 ± 0.03 % ID/g
Biodistribution: Bone (C2C12/Ras tumors; 2 h p.i.): 0.10 ± 0.01 % ID/g
Biodistribution: Brain (C2C12/Ras tumors; 2 h p.i.): 0.02 ± 0.00 % ID/g
Biodistribution: Heart (C2C12/Ras tumors; 2 h p.i.): 0.30 ± 0.08 % ID/g
Biodistribution: Intestines (C2C12/Ras tumors; 2 h p.i.): 1.38 ± 0.54 % ID/g
Biodistribution: Kidney (C2C12/Ras tumors; 2 h p.i.): 0.67 ± 0.19 % ID/g
Biodistribution: Liver (C2C12/Ras tumors; 2 h p.i.): 3.59 ± 1.01 % ID/g
Biodistribution: Lung (C2C12/Ras tumors; 2 h p.i.): 0.59 ± 0.22 % ID/g
Biodistribution: Muscle (C2C12/Ras tumors; 2 h p.i.): 0.05 ± 0.01 % ID/g
Biodistribution: Pancreas (C2C12/Ras tumors; 2 h p.i.): 0.18 ± 0.08 % ID/g
Biodistribution: Spleen (C2C12/Ras tumors; 2 h p.i.): 0.24 ± 0.04 % ID/g
Biodistribution: Stomach (C2C12/Ras tumors; 2 h p.i.): 0.32 ± 0.06 % ID/g
Biodistribution: Tumor (C2C12/Ras tumors; 2 h p.i.): 0.30 ± 0.03 % ID/g
Tumor/Blood ratio (C2C12/Ras tumors; 2 h p.i.): 1.25 and 1.25 ± 0.21
Tumor/Muscle ratio (C2C12/Ras tumors; 2 h p.i.): 5.64 and 5.64 ± 0.98
Biodistribution: Blood (C2C12/Ras tumors; 24 h p.i.): 0.28 ± 0.10 % ID/g
Biodistribution: Bone (C2C12/Ras tumors; 24 h p.i.): 0.14 ± 0.10 % ID/g
Biodistribution: Brain (C2C12/Ras tumors; 24 h p.i.): 0.05 ± 0.01 % ID/g
Biodistribution: Heart (C2C12/Ras tumors; 24 h p.i.): 0.46 ± 0.07 % ID/g
Biodistribution: Intestines (C2C12/Ras tumors; 24 h p.i.): 0.46 ± 0.04 % ID/g
Biodistribution: Kidney (C2C12/Ras tumors; 24 h p.i.): 0.72 ± 0.05 % ID/g
Biodistribution: Liver (C2C12/Ras tumors; 24 h p.i.): 1.86 ± 0.57 % ID/g
Biodistribution: Lung (C2C12/Ras tumors; 24 h p.i.): 0.65 ± 0.15 % ID/g
Biodistribution: Muscle (C2C12/Ras tumors; 24 h p.i.): 0.06 ± 0.02 % ID/g
Biodistribution: Pancreas (C2C12/Ras tumors; 24 h p.i.): 0.21 ± 0.06 % ID/g
Biodistribution: Spleen (C2C12/Ras tumors; 24 h p.i.): 0.42 ± 0.06 % ID/g
Biodistribution: Stomach (C2C12/Ras tumors; 24 h p.i.): 0.27 ± 0.11 % ID/g
Biodistribution: Tumor (C2C12/Ras tumors; 24 h p.i.): 0.27±0.05 % ID/g
Tumor/Blood ratio (C2C12/Ras tumors; 24 h p.i.): 0.99 ± 0.24
Tumor/Muscle ratio (C2C12/Ras tumors; 24 h p.i.): 4.07 ± 1.13
Blood clearance (C2C12/Ras tumors; both tumor models, nude mice, i.v.): rapid clearance in blood
log P (octanol-water partition coefficient) [1]: −0.10±0.04
Compound: Cc1cccc(C)c1C(=O)OCC(=O)[C@H](CCCCNC(=O)CN1CCN(CC(=O)[O-])CCN(CC(=O)O)CCN(CC(=O)[O-])CC1)NC(=O)[C@H](Cc1ccccc1)NC(=O)OCc1ccccc1.[64Cu+2] [^64Cu-Z-FK(DOTA)-AOMK]
MicroPET tumor visualization / contrast (C2C12/Ras tumor): clearly visualized with good tumor to contralateral background contrast
MicroPET tumor visualization / contrast (MDA-MB-435 tumor): low tumor uptake and poor tumor to normal tissue contrast
